In ChEMBL document CHEMBL5725463, “Amino-dihydrothiazine and amino-dioxido dihydrothiazine compounds as beta-secretase antagonists and methods of use” (2017):
pIC50: −log10 of the molar value.

Assays:
[1] = target: Beta-secretase 1 (Homo sapiens, UniProt P56817); assay: In Vivo Inhibition of Beta-Secretase: Several animal models, including mouse, rat, dog, and monkey, may be used to screen for inhibition of beta-secretase activity in vivo following administration of a test compound sample. Animals used in this invention can be wild type, transgenic, or gene knockout animals. For example, the Tg2576 mouse model, prepared and conducted as described in Hsiao et al., 1996, Science 274, 99-102, and other non-transgenic or gene knockout animals are useful to analyze in vivo inhibition of Amyloid beta peptide (Abeta) production in the presence of inhibitory test compounds. Generally, 2 to 18 month old Tg2576 mice, gene knockout mice or non-transgenic animals are administered test compounds formulated in vehicles, such as cyclodextran, phosphate buffers, hydroxypropyl methylcellulose or other suitable vehicles. […]; assay type: organism-based
[2] = target: Cathepsin D (Homo sapiens, UniProt P07339); assay: In Vitro Enzymatic: Recombinant Cat D was expressed in CHO cells. The assay buffer for CathepsinD is 0.05 M citrate pH 3.5, 10% DMSO final, 5 mM CHAPS. The Cat D enzyme (9 nM) is pre-incubated for one hour with inhibitors, typically in about 1 uL of DMSO according to a serial dilution, is added thereto. The assays are effectively started by the addition of different FRET substrates (20 nM for Cat D) and the combination is incubated for one hour. The FRET assay is terminated with by addition of Tris buffer, which raises the pH to neutrality, and the fluorescence is determined. The FRET substrate is a peptide with commercially available fluorophore and quencher, on opposite sides of the BACE cleavage site. The Cat D substrate peptide sequence is based on sequence #1 of Table 1 from Gulnik et al. FEBS Letters v413 p 379-384 1997. Proteolytic cleavage of the FRET substrate releases quenching of fluorescence (Cat D excitation 500 nm and emission 580 nm).Alternatively, a Cat D assay may also be run according to the procedure described in the article, Characterization of new fluorgenic substrates for the rapid and sensitive assay of cathepsin E and cathepsin D, J. Biochem., 125:1137, 1999.; assay type: cell-based
Cathepsin D, sequence (P07339 65-162 limits assumed): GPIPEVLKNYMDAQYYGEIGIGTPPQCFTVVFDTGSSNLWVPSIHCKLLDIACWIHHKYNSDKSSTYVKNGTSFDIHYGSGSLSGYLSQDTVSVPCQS
Cathepsin D, sequence (P07339 169-412 limits assumed): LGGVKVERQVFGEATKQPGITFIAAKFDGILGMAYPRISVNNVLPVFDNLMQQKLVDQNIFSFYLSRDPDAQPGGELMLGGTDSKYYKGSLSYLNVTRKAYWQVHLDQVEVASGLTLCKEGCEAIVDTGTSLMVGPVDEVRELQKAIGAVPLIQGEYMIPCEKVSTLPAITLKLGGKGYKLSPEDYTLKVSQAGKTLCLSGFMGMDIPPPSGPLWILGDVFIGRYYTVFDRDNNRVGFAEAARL

Beta-secretase 1, sequence (P56817 whole entry): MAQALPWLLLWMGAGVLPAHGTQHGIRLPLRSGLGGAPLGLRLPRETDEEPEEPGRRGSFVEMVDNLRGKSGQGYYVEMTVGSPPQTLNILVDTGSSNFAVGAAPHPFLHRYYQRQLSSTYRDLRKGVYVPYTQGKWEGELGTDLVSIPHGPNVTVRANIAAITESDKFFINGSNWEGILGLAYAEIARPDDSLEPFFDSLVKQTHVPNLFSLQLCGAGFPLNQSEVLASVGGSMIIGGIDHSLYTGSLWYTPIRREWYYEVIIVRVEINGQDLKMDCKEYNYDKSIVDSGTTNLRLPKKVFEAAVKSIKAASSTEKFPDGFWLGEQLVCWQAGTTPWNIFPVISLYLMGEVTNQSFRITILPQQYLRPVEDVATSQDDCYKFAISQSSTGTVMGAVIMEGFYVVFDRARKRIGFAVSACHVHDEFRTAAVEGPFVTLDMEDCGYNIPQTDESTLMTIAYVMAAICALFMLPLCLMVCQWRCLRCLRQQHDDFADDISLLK

| pIC50 [1] | pIC50 [2] | Structure (SMILES) |
| --- | --- | --- |
| 9.12 | 3.87 | Cc1cc(C#N)cnc1C(=O)Nc1ccc(F)c([C@]2(C)CS(=O)(=O)C3(CCC3)C(N)=N2)c1 |
| 8.80 | 4.07 | Cc1cc(Cl)cnc1C(=O)Nc1ccc(F)c([C@]2(C)CS(=O)(=O)C3(CCC3)C(N)=N2)c1 |
